Test results from publication PMC11013662, “New Thiosemicarbazide Derivatives with Multidirectional Biological Action” (Molecules, 2024).
In brackets after ≈: the same amount, converted by molar mass.

Columns and labels:
Format in all cases: cell-based
[1] = system: Staphylococcus epidermidis ATCC 12228; experiment: Broth microdilution MIC / MBC; details: ATCC12228, S. epidermidis ATCC 12228
Experimental: (§1) The microdilution method was used to determine the MIC values of newly synthesized compounds. The antimicrobial activity of the thiosemicarbazides series was tested on ten reference bacterial strains purchased from the American Type Culture Collection (ATCC). Seven Gram-positive reference strains (S. aureus ATCC 29213, S. aureus ATCC 43300, S. aureus ATCC 6538, S. aureus ATCC 25923, S. epidermidis ATCC 12228, M. luteus ATCC 10240, and B. cereus ATCC 10876) and three Gram-negative reference bacteria (K. pneumoniae ATCC 13883, E. coli ATCC 25922, S. typhimurium ATCC 14028) were used. These bacterial strains are representatives of microorganisms that can cause the most common opportunistic infections among humans. The bacteria were grown on Mueller–Hinton agar (MHA) plates before examination. To perform the assay, all bacteria were placed in sterile saline (0.85% NaCl) to obtain a suspension of the optical density of the 0.5 McFarland standard (1.50 × 10^8 colony-forming units (CFUs)/mL). A solution of the tested compounds was prepared in dimethyl sulfoxide (DMSO) at a concentration of 50 mg/mL as a stock solution.
(§2) A 96-well microtiter plate and microbroth two-fold dilution method was used to determine the minimum inhibitory concentration (MIC) according to the EUCAST (European Committee on Antimicrobial Susceptibility Testing) reference recommendation. The solutions were then diluted with Mueller–Hinton broth (MHB, Biomaxima, Lublin, Poland) medium to obtain a solution with a basic concentration of 1000 µg/mL. Then, using the two-fold dilution method with MHB, the tested compounds were introduced into the wells of the microplate to provide a final concentration in the range of 0.49 to 1000 µg/mL. Then, 2 μL of bacterial inoculum with a density of 0.5 McFarland standard was added into each well. Each well was filled with a total volume of 100 μL. Then, microtiter plates were incubated for 18 ± 2 h at 35 °C. After incubation, the growth of bacteria was monitored by a Biotek ELx800 (Biokom, Janki, Poland) spectrophotometer at 600 nm (OD600). The MIC assays were performed in triplicate.
(§3) A negative control with MHB and without tested compounds was used. Clinically used anti-bacterial agents, cefuroxime and vancomycin, were included as positive controls for the purpose of comparison in a concentration range from 0.007 to 15.625 µg/mL.
(§4) The in vitro antimicrobial activity of the tested compounds was determined by the MIC, which was defined as the lowest concentration of the compound tested at which no visible growth of the test bacteria was observed. The MBC (the minimum bactericidal concentration) is defined as the lowest concentration of antimicrobial agent resulting in reduction in the viability of the initial bacterial inoculum by ≥99.9% on the plate. Generally, an MBC/MIC ratio less than 4 is considered bactericidal for an antimicrobial, and an MBC/MIC > 8 is indicative of bacteriostatic activity. For the MBC test, the Mueller–Hinton agar (MHA, Biomaxima, Poland) plate assay was used. MBC was determined after the broth dilution period of an MIC test has been completed. After the MIC detection, 5 µL aliquots from each well were plated on an MHA plate and grown at 35 °C overnight. The MBC values were determined by observing the first clear area on the agar plate that has no observable bacterial growth.

[2] = system: Staphylococcus aureus ATCC 25923; experiment: Broth microdilution MIC / MBC; details: for MIC: ATCC25923, S. aureus ATCC 25923, read-out: MIC; for MBC: ATCC25923, S. aureus ATCC 25923, read-out: MBC
Experimental: as §1, §2, §3, §4

[3] = system: Bacillus cereus ATCC 10876; experiment: Broth microdilution MIC / MBC; details: ATCC10876, B. cereus ATCC 10876
Experimental: as §1, §2, §3, §4

[4] = system: Staphylococcus aureus ATCC 43300; experiment: Broth microdilution MIC / MBC; details: S. aureus ATCC 43300 (MRSA); for MIC: read-out: MIC; for MBC: read-out: MBC
Experimental: as §1, §2, §3, §4

[5] = system: Micrococcus luteus ATCC 10240; experiment: Broth microdilution MIC / MBC; details: ATCC10240, M. luteus ATCC 10240
Experimental: as §1, §2, §3, §4

[6] = system: Staphylococcus aureus ATCC 29213; experiment: Broth microdilution MIC / MBC; details: ATCC29213, S. aureus ATCC 29213
Experimental: as §1, §2, §3, §4

[7] = system: Staphylococcus aureus ATCC 6538; experiment: Broth microdilution MIC / MBC; details: ATCC6538, S. aureus ATCC 6538
Experimental: as §1, §2, §3, §4

[8] = system: SW 620 human metastatic colon cancer cells; experiment: MTT cytotoxicity assay; details: for IC50: Homo sapiens, SW 620, MTT, 72 h; for SI (Selectivity Index): IC50 for normal cell line (V79)/IC50 cancer cell line (SW 620)
Experimental: Both lines were obtained from American Type Culture Collection (ATCC, Rockville, MD, USA). The culture used to grow the SW 620 cells was prepared in MEM (ThermoSci, Waltham, MA, USA). The V79 cells were cultured in RPMI (Biowest SAS, Nuaillé, France) with the addition of 20 mM HEPES (Biowest, Nuaillé, France), 10% fetal bovine serum (FBS, Sigma-Aldrich, St. Louis, MO, USA), 100 µg/mL of streptomycin, and 100 U/mL of penicillin (Gibco, Grand Island, NY, USA). […] The MTT assay was used to establish the cytotoxic activity of the studied compounds. […] The process starts with the preparation of 96-well plates by placing cells at a density of 1 × 10^4 per well and incubating them for 24 h to adhere. […] Next, cells were incubated for 72 h at 37 °C with a 5% CO2. Then, a solution of MTT (0.5 mg/mL) was added to each well and plates were incubated for 4 h more in the same conditions. To dissolve precipitated formazan crystals, a mixture of DMSO and isopropanol (in a 1:1 ratio, v/v) was used. […] Cell viability was determined as the percentage of MTT reduction in the treated cells compared to the control group (unexposed cells). The relative MTT level, represented as a percentage, was calculated using the formula [A]/[B] × 100, where [A] stands for the absorbance of the treated cell sample and [B] for the absorbance of unexposed to studied compounds sample (control group).

SMILES | MIC [1] [µg/mL] | MIC [2] [µg/mL] | MIC [3] [µg/mL] | MIC [4] [µg/mL] | MIC [5] [µg/mL] | MIC [6] [µg/mL] | MIC [7] [µg/mL] | IC50 [8] [µM] | SI (Selectivity Index) [8] | MBC [1] [µg/mL] | MBC [2] [µg/mL] | MBC [3] [µg/mL] | MBC [4] [µg/mL] | MBC [5] [µg/mL] | MBC [6] [µg/mL] | MBC [7] [µg/mL]
COc1cccc(NC(=S)NNC(=O)c2cccc(C(F)(F)F)c2)c1 [Compound 3b, 1-(3-Trifluoromethylbenzoyl)-4-(3-methoxyphenyl)thiosemicarbazide] | > 1000 | 62.5 (≈ 169 µM) | > 1000 | > 1000 | 500 (≈ 1350 µM) | > 1000 | > 1000 | > 100 | 1 |  |  |  |  |  |  | 
FC(F)(F)c1cccc(-c2n[nH]c(=S)n2-c2cccc(Cl)c2)c1 [Compound 4, 4-(3-Chlorophenyl)-5-(3-trifluoromethylphenyl)-2,4-dihydro-3H-1,2,4-triazole-3-thione] | 500 (≈ 1410 µM) | 1000 (≈ 2810 µM) | > 1000 | > 1000 | 1000 (≈ 2810 µM) | > 1000 | > 1000 | > 100 | 1 |  |  |  |  |  |  | 
O=C(NNC(=S)Nc1cccc(F)c1)c1cccc(C(F)(F)F)c1 [Compound 3e, 1-(3-Trifluoromethylbenzoyl)-4-(3-fluorophenyl)thiosemicarbazide] | 31.2 (≈ 87.5 µM) | 31.2 (≈ 87.5 µM) | 7.81 (≈ 21.9 µM) | 31.2 (≈ 87.5 µM) | 15.6 (≈ 43.7 µM) | 15.6 (≈ 43.7 µM) | 15.6 (≈ 43.7 µM) | 89.9 ± 14.6 |  | > 1000 | > 1000 | > 1000 | > 1000 | > 1000 | > 1000 | > 1000
O=C(NNC(=S)Nc1cccc(Cl)c1)c1cccc(C(F)(F)F)c1 [Compound 3a, 4-(3-Chlorophenyl)-1-(3-trifluoromethylbenzoyl)thiosemicarbazide] | 1.95 (≈ 5.22 µM) | 1.95 (≈ 5.22 µM) | 1.95 (≈ 5.22 µM) | 3.9 (≈ 10.4 µM) | 1.95 (≈ 5.22 µM) | 1.95 (≈ 5.22 µM) | 1.95 (≈ 5.22 µM) | 69 ± 12.6 | 0.59 | 15.6 (≈ 41.8 µM) | 1000 (≈ 2680 µM) | 15.6 (≈ 41.8 µM) | 1000 (≈ 2680 µM) | 15.6 (≈ 41.8 µM) | 1000 (≈ 2680 µM) | 1000 (≈ 2680 µM)

The remaining compounds from weak to strong by MIC [1], led by results:

MIC [1] [µg/mL] | MIC [2] [µg/mL] | MIC [3] [µg/mL] | MIC [4] [µg/mL] | MIC [5] [µg/mL] | MIC [6] [µg/mL] | MIC [7] [µg/mL] | SMILES | IC50 [8] [µM] | SI (Selectivity Index) [8] | MBC [1] [µg/mL] | MBC [2] [µg/mL] | MBC [3] [µg/mL] | MBC [4] [µg/mL] | MBC [5] [µg/mL] | MBC [6] [µg/mL] | MBC [7] [µg/mL]
1000 (≈ 2830 µM) | 1000 (≈ 2830 µM) | > 1000 | > 1000 | 1000 (≈ 2830 µM) | > 1000 | > 1000 | Cc1cccc(NC(=S)NNC(=O)c2cccc(C(F)(F)F)c2)c1 [Compound 3d, 1-(3-Trifluoromethylbenzoyl)-4-(3-methylphenyl)thiosemicarbazide] | > 100 | 0.69 |  |  |  |  |  |  | 
1000 (≈ 2950 µM) | 62.5 (≈ 184 µM) | > 1000 | > 1000 | 1000 (≈ 2950 µM) | > 1000 | > 1000 | O=C(NNC(=S)Nc1ccccc1)c1cccc(C(F)(F)F)c1 [Compound 3f, 1-(3-Trifluoromethylbenzoyl)-4-(phenyl)thiosemicarbazide] | > 100 | 1 |  |  |  |  |  |  | 
1000 (≈ 3130 µM) | 250 (≈ 783 µM) | > 1000 | > 1000 | 1000 (≈ 3130 µM) | > 1000 | > 1000 | CCCCNC(=S)NNC(=O)c1cccc(C(F)(F)F)c1 [Compound 3c, 4-Butyl-1-(3-trifluoromethylbenzoyl)thiosemicarbazide] | > 100 | 1 |  |  |  |  |  |  | 
